According to patent US20250214969A1, “PROTEIN DEGRADERS AND USES THEREOF” (Kymera Therapeutics, Inc., priority 2022, published 2025):

How the values were obtained:
[1] = target: T1, truncated His-MBP-Tev-KLHDC2 (residues 1-363) (Homo sapiens, UniProt Q9Y2U9); test: KLHDC2 HTRF binding assay; conditions: 1 nM KLHDC2 (residues 1-363), fluorescein-labeled diglycine peptide probe
T1 construct: truncated His -MBP-Tev-KLHDC2 (residues 1-363) purified from E. coli; made in house; host or cells: E. coli
T1 sequence (Q9Y2U9 1-363): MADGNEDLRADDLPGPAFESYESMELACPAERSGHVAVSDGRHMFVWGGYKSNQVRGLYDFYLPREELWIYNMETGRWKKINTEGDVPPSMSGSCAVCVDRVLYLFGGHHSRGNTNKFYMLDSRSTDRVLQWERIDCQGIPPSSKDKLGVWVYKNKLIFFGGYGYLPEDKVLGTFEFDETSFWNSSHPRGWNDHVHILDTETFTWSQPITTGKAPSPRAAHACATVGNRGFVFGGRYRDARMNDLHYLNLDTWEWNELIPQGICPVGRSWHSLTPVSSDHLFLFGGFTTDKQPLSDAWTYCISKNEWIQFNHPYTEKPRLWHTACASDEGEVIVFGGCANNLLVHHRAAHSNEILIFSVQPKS
Experimental: HTRF binding assays were performed using 1 nM truncated His -MBP-Tev-KLHDC2 (residues 1-363) purified from E. coli, 0.2 nM terbium-anti-His antibody (CisBio), 1 nM fluorescein-labeled diglycine peptide probe, and test compounds in assay buffer consisting of 50 mM HEPES-Na pH 7.5, 100 mM NaCl, 2 mM DTT, 0.005% Tween-20 with a final volume of 20 uL. Compound stocks were dissolved at 10 mM in 100% DMSO and 11 point titration with 3 fold serial dilution was performed in white, opaque 384 well microplates. Reaction plates were incubated at room temperature for 30 minutes. Plates were centrifuged at low rpm for 5 mins, and the ratio of fluorescence intensities were measured at emission wavelengths for fluorescein acceptor (520 nm) and terbium donor (495 nm) on Envision Plate reader. % Inhibition was calculated from the 520/495 ratio generated by the no protein controls for 100% inhibition and DMSO only reactions for 0l % inhibition.

[2] = target: T1, truncated His-MBP-Tev-KLHDC2 (residues 1-363); test: KLHDC2 FP competition binding assay; conditions: 15 nM KLHDC2 (residues 1-363), 10 nM fluorescein-labeled diglycine peptide probe, read-out: KLHDC2 binding Human FP: average external IC50

Row | SMILES | IC50 [1] [µM] | IC50 [2] [µM]
1 | O=C(O)Cn1cc(CC(=O)N2CCc3ccccc32)ccc1=O [I-277] | > 5 | > 5
2 | O=C(O)Cn1cc(NC(=O)c2nccc3c(Cl)cccc23)ccc1=O [I-248] | 0.5 to 5 | > 5
3 | O=C(O)CCC(=O)NCc1nc2ccccc2s1 [I-225] | > 5 | > 5
4 | O=C(O)Cn1cc(NC(=O)c2ccc(-c3cccnc3)s2)ccc1=O [I-205] | > 5 | > 5
5 | CC(C)c1cc(=O)n(CC(=O)O)cc1NC(=O)[C@H]1CCCN(c2cccnc2)C1 [I-46] | 0.5 to 5 | > 5
6 | O=C(O)Cn1cc(-c2cnc(N3CCOCC3)nc2)ccc1=O [I-361] | > 5 | > 5
7 | O=C(O)Cn1cc(NC(=O)[C@H]2CCCN(c3cccnc3)C2)c(C(F)(F)F)cc1=O [I-67] | > 5 | > 5
8 | Cc1cccc(Cl)c1C(=O)Nc1ccc(=O)n(CC(=O)O)c1 [I-319] | > 5 | > 5
9 | O=C(O)Cn1cc(-c2cccc(OCc3ccccc3)c2)ccc1=O [I-300] | > 5 | > 5
10 | CCOC(=O)Cn1cc(NC(=O)c2cccc(-c3cccnc3)c2)ccc1=O [I-98] | > 5 | > 5
11 | NCCCCCCc1ccc(C(=O)Nc2ccc(=O)n(CC(=O)O)c2)cc1-c1cccnc1 [I-144] | 0.5 to 5 | 0.5 to 5
12 | N#Cc1cc(=O)n(CC(=O)O)cc1NC(=O)c1cccc(-c2cccnc2)c1 [I-25] | 0.05 to 0.5 | 0.5 to 5
13 | Cn1ccc2c(C(=O)Nc3ccc(=O)n(CC(=O)O)c3)cccc21 [I-145] | 0.5 to 5 | > 5
14 | O=C(O)Cn1cc(NC(=O)c2ccc(-c3ccccc3)s2)ccc1=O [I-249] | 0.5 to 5 | > 5
15 | O=C(O)Cn1cc(NC(=O)COc2ccc(F)cc2)ccc1=O [I-283] | > 5 | > 5
16 | CC(C)c1ccc(C(=O)Nc2ccc(=O)n(CC(=O)O)c2)cc1-c1cccnc1 [I-174] | 0.5 to 5 | 0.5 to 5
17 | Cc1sc2c(c1C)C(c1ccc(Cl)cc1)=N[C@@H](CC(=O)NCCCCCCc1cc(C(=O)Nc3ccc(=O)n(CC(=O)O)c3)cc(-c3cccnc3)c1)c1nnc(C)n1-2 [I-476] | 0.05 to 0.5 | < 0.05
18 | CN(C)C(=O)c1ccc(-c2ccc(=O)n(CC(=O)O)c2)c(F)c1 [I-383] | > 5 | > 5
19 | COc1ccc(-c2ccccc2C)cc1CC(=O)O [I-352] | > 5 | > 5
20 | Cc1ccc(Cl)cc1-c1ccc(=O)n(CC(=O)O)c1 [I-401] | > 5 | > 5

Row | SMILES | IC50 [1] [µM] | IC50 [2] [µM]
21 | N#Cc1cccc(OCC(=O)Nc2ccc(=O)n(CC(=O)O)c2)c1 [I-258] | > 5 | > 5
22 | CCCCC(=O)Nc1cncc(C(=O)Nc2ccc(=O)n(CC(=O)O)c2)c1 [I-241] | > 5 | > 5
23 | O=C(O)Cn1cc(NC(=O)c2cccc3[nH]ccc23)ccc1=O [I-139] | 0.5 to 5 | > 5
24 | O=C(O)Cn1cc(NC(=O)c2cccc(-c3cccnc3)c2Cl)ccc1=O [I-42] | 0.5 to 5 | > 5
25 | O=C(O)Cc1cc(NC(=O)[C@H]2CCCN(c3cccnc3)C2)ccc1Cl [I-35] | 0.05 to 0.5 | 0.5 to 5
26 | Cc1ccc(C(=O)Nc2ccc(=O)n(CC(=O)O)c2)nc1-c1ccccc1 [I-173] | 0.5 to 5 | > 5
27 | O=C(O)Cn1cc(-c2cccc3ccccc23)ccc1=O [I-409] | > 5 | > 5
28 | COc1cncc(-c2cccc(C(=O)Nc3ccc(=O)n(CC(=O)O)c3)c2)c1 [I-47] | < 0.05 | 0.5 to 5
29 | O=C(O)Cn1cc(NC(=O)c2ccc(-c3cccnc3)cc2)ccc1=O [I-198] | 0.5 to 5 | > 5
30 | O=C(O)Cn1cc(NC(=O)c2cccc(-c3cccnc3)c2)c(C(F)(F)F)cc1=O [I-73] | 0.5 to 5 | > 5
31 | O=C(Nc1ccc(=O)n([C@@H](F)C(=O)O)c1)c1cccc(-c2cccnc2)c1 [I-51] | 0.5 to 5 | > 5
32 | O=C(O)Cn1cc(NC(=O)c2ccc(-c3ccccc3)cc2)ccc1=O [I-212] | 0.5 to 5 | > 5
33 | CCc1cc(=O)n(CC(=O)O)cc1NC(=O)c1cccc(-c2cccnc2)c1 [I-54] | 0.05 to 0.5 | 0.5 to 5
34 | COc1ccc(-c2ccc(=O)n(CC(=O)O)c2)cn1 [I-327] | > 5 | > 5
35 | CCOC(=O)Cn1cc(NC(=O)c2cccc(-c3cncc(CCCCCCN)c3)c2)ccc1=O [I-159] | > 5 | > 5
36 | O=C(O)Cn1cc(/C=C/c2ccccc2)ccc1=O [I-326] | > 5 | > 5
37 | Cc1ccccc1-c1cccc(C(=O)Nc2ccc(=O)n(CC(=O)O)c2)c1 [I-289] | > 5 | > 5
38 | Cc1cc(=O)n(CC(=O)O)cc1NC(=O)c1cccc(-c2cccnc2)c1 [I-96] | 0.05 to 0.5 | 0.5 to 5
39 | O=C(O)Cn1cc(NC(=O)c2cccc(-c3ccccc3)n2)ccc1=O [I-274] | > 5 | > 5
40 | Cc1ccc(CC(C)C)cc1-c1ccc(=O)n(CC(=O)O)c1 [I-334] | > 5 | > 5

Row | SMILES | IC50 [1] [µM] | IC50 [2] [µM]
41 | O=C(O)Cn1cc(C(=O)NCc2ccccc2)ccc1=O [I-373] | > 5 | > 5
42 | O=C(O)Cn1cc(NC(=O)c2cccc(Br)c2)ccc1=O [I-268] | > 5 | > 5
43 | O=C(O)Cn1cc(NC(=O)CCCc2ccc(C3CC3)cc2)ccc1=O [I-239] | 0.5 to 5 | > 5
44 | O=C(O)Cn1cc(CC(=O)N2CCCCC2)ccc1=O [I-290] | > 5 | > 5
45 | O=C(O)CC1NC(=O)c2ccccc21 (centres unmarked) [I-231] | > 5 | > 5
46 | CCCOc1nc2ccccc2cc1C(=O)Nc1ccc(=O)n(CC(=O)O)c1 [I-188] | > 5 | > 5
47 | O=C(O)Cn1cc(-c2cccc(N3CCCCC3)c2)ccc1=O [I-314] | > 5 | > 5
48 | O=C(O)Cn1cc(NC(=O)c2occc2CN2C(=O)Cc3ccccc32)ccc1=O [I-242] | 0.5 to 5 | > 5
49 | CC(C)Cn1ccc2c(C(=O)Nc3ccc(=O)n(CC(=O)O)c3)ccnc21 [I-132] | 0.5 to 5 | > 5
50 | COc1cncc(-c2cccc(C(=O)Nc3ccc(O)c(CC(=O)O)c3)c2)c1 [I-22] | > 5 | > 5
51 | O=C(O)Cn1c(=O)oc2cc([N+](=O)[O-])ccc21 [I-214] | > 5 | > 5
52 | CC1CC(C(=O)Nc2ccc(=O)n(CC(=O)O)c2)CN(c2cccnc2)C1 (centres unmarked) [I-53] | 0.05 to 0.5 | 0.5 to 5
53 | COc1cncc(N2CCC[C@H](C(=O)Nc3ccc(F)c(CC(=O)O)c3)C2)c1 [I-24] | 0.05 to 0.5 | 0.05 to 0.5
54 | O=C(O)Cn1cc(-c2cc(F)c(O)c(F)c2)ccc1=O [I-389] | > 5 | > 5
55 | O=C(O)Cc1cc(NC(=O)c2cccc(-c3cccnc3)c2)ccc1F [I-55] | 0.5 to 5 | > 5
56 | COc1cc(-c2ccc(F)cc2)ccc1C(=O)Nc1ccc(=O)n(CC(=O)O)c1 [I-155] | 0.05 to 0.5 | 0.5 to 5
57 | O=C(O)Cn1cc(N2CCc3ccccc3C2=O)ccc1=O [I-95] | 0.5 to 5 | > 5
58 | Cc1cc(=O)n(CC(=O)O)cc1-c1cc(F)c(O)c(F)c1 [I-329] | > 5 | > 5
